Results reported in patent publication US12527779B2, “Prostaglandin E2 (PGE2) EP4 receptor antagonists” (Domain Therapeutics, priority 2019, dated 2026).
Structures can show the parent of a compound that is named as a salt.

Molecular target: T1, human EP4 (hEP4) receptor (Homo sapiens, UniProt P35408)
T1 construct: expressed in transfected cells; host or cells: HEK-293 T cells, transient co-transfection with polyethylenimine
Assay: In vitro human EP4 functional antagonist activity using BRET biosensors (cAMP EPAC biosensor, TCS2510 stimulation)
Type: cell-based
Settings: antagonist activity vs EC60 TCS2510, hEP4 in HEK-293 T cells
Protocol: Examples of the present invention were tested successively for their agonist and antagonist activities on human EP4 (hEP4) receptor transiently over-expressed in HEK-293 T cells. […] The assay used to measure compound activity is based on the BRET technology. The unimolecular cAMP biosensor used to detect intracellular cAMP levels following GPCR stimulation consists of the EPAC protein fused to N- and C-terminal of Luciferase and GFP respectively.
Cell Culture and Transfection: HEK-293 T cells are maintained in Dulbecco's Modified Eagle's Medium supplemented with 10% Foetal Calf Serum, 1% Penicillin/Streptomycin at 37° C./5% CO2. Cells are co-transfected using polyethylenimine (25 kDa linear) with two DNA plasmids encoding hEP4, EPAC fused to luciferase (BRET donor) and to GFP (BRET acceptor). After transfection, cells are cultured (40,000 cells per well) for 48 h at 37° C./5% CO2.
BRET assay: Receptor activity is detected by changes in BRET signal. On the day of the assay, cells are rinsed and incubated in assay buffer (1.8 mM CaCl2, 1 mM MgCl2, 2.7 mM KCl, 137 mM NaCl, 0.4 mM NaH2PO4, 5.5 mM D-Glucose, 11.9 mM NaHCO3, 25 mM Hepes). Then, plates are equilibrated 1 h at 22° C. before adding compounds. Compounds and luciferase substrate are added to the cells using an automated device (Freedom Evo®, Tecan) and BRET readings are collected on EnVision (PerkinElmer) with specific filters (410 nm BW 80 nm, 515 nm BW 30 nm). Agonist and antagonist activities of compounds are consecutively evaluated on the same cell plate. Agonist activity is first measured after 5 min incubation with compound alone on the cells. Then, cells are stimulated by an EC60 TCS2510 concentration and luminescence is recorded for additional 10 min. EC60 TCS2510 concentration is the concentration giving 60% of the maximal TCS2510 response. Agonist or antagonist activities are evaluated in comparison to basal signals evoked by assay buffer or EC60 TCS2510 alone, respectively.
For IC50 determination, a dose-response test is performed using 10 concentrations (ranging over 4.5 logs) of each compound. Dose-response curves are fitted using the sigmoidal dose-response (variable slope) analysis in GraphPad Prism software (GraphPad Software) and IC50 of antagonist activity is calculated. Dose-response experiments are performed in duplicate, in two independent experiments. IC50 values are categorized as following: A: IC50<0.1 μM; B: IC50<1 μM.

T1 sequence (P35408 whole entry): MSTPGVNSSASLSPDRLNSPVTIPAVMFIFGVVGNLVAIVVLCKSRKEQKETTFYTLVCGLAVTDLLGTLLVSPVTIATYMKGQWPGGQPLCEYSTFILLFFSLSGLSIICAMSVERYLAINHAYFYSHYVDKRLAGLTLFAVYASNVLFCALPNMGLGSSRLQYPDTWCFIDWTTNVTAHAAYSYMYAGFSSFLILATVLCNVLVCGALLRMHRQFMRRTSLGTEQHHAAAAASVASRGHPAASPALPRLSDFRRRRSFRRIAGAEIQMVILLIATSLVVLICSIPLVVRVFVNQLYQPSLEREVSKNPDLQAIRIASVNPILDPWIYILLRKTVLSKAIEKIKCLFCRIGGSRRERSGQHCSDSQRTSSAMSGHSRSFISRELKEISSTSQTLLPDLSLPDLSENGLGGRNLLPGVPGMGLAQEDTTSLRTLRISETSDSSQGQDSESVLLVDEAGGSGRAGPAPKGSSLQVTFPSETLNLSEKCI

| Structure (SMILES) | IC50 |
| --- | --- |
| C[C@H](NC(=O)C(C)(C)N1CC[C@@H](Oc2cccc(Cl)c2)C1)c1ccc(C(N)=O)cc1 [Example 174, hydrochloride] | < 0.1 µM |
| Cc1ccc([C@H](C)NC(=O)C2(N3CC[C@@H](Oc4cccc(C(F)(F)F)c4)C3)CCOCC2)cc1 [Example 193, N—((S)-1-(4-Methylphenyl)ethyl)-4-((R)-3-(3-(trifluoromethyl)phenoxy)pyrrolidin-1-yl)tetrahydro-2H-pyran-4-carboxamide, hydrochloride] | < 1 µM |
| CCCC(C)COc1ccc(C2(C(=O)N[C@@H](C)c3ccc(C(=O)O)cc3)CCOCC2)cc1 (stereo partly drawn) [Example 84, 4-[(1S)-1-[[4-[4-(2-Methylpentoxy)phenyl]tetrahydropyran-4-carbonyl]amino]ethyl]benzoic acid] | < 1 µM |
| O=C(O)c1ccc(C2(NC(=O)C3(N4CC[C@H](Oc5cccc(Cl)c5)C4)CCOCC3)CC2)cc1 [Example 139, 4-[1-[[4-[(3S)-3-(3-Chlorophenoxy)pyrrolidin-1-yl]tetrahydropyran-4-carbonyl]amino]cyclopropyl]benzoic acid, hydrochloride] | < 1 µM |
| CN(CCOc1ccccc1Cl)C1(C(=O)NC2(c3ccc(C(=O)O)cc3)CC2)CCOCC1 [Example 30, 4-[1-[[4-[2-(2-Chlorophenoxy)ethyl-methyl-amino]tetrahydropyran-4-carbonyl]amino]cyclopropyl]benzoic acid, hydrochloride] | < 0.1 µM |
| C[C@H](NC(=O)C1(N2CC[C@@H](Oc3cccc(Cl)c3)C2)CCCCC1)c1ccc(C(=O)O)cc1 [Example 155, 4-[(1S)-1-[[1-[(3R)-3-(3-Chlorophenoxy)pyrrolidin-1-yl]cyclohexane-1-carbonyl]amino]ethyl]benzoic acid, hydrochloride] | < 0.1 µM |
| C[C@H](NC(=O)C(C)(C)N1CC[C@@H](Oc2cccc(C(F)(F)F)c2)C1)c1ccc(S(C)(=N)=O)cc1 (stereo partly drawn) [Example 205, 2-Methyl-N-((1S)-1-(4-(S-methylsulfonimidoyl)phenyl)ethyl)-2-((R)-3-(3-(trifluoromethyl)phenoxy)pyrrolidin-1-yl)propanamide, hydrochloride] | < 0.1 µM |
| CN(CCOc1ccccc1)C1(C(=O)NC2(c3ccc(C(=O)O)cn3)CC2)CCOCC1 [Example 54, 6-[1-[[4-[Methyl(2-phenoxyethyl)amino]tetrahydropyran-4-carbonyl]amino]cyclopropyl]pyridine-3-carboxylic acid, hydrochloride] | < 1 µM |
| O=C(O)c1ccc(C2(NC(=O)C3(N4CCC[C@H](Oc5cccc(Cl)c5)C4)CCOCC3)CC2)cc1 [Example 135, 4-[1-[[4-[(3S)-3-(3-Chlorophenoxy)-1-piperidyl]tetrahydropyran-4-carbonyl]amino]cyclopropyl]benzoic acid, hydrochloride] | < 1 µM |
| COc1ccc([C@H](C)NC(=O)C2(N3CC[C@@H](Oc4cccc(C(F)(F)F)c4)C3)CCOCC2)cc1 [Example 195, N—((S)-1-(4-Methoxyphenyl)ethyl)-4-((R)-3-(3-(trifluoromethyl)phenoxy)pyrrolidin-1-yl)tetrahydro-2H-pyran-4-carboxamide, hydrochloride] | < 0.1 µM |
| C[C@H](NC(=O)C1(N2CC[C@@H](Oc3cccc(C(F)(F)F)c3)C2)CCOCC1)c1ccc(S(C)(=N)=O)cc1 (stereo partly drawn) [Example 180, N-((1S)-1-(4-(S-Methylsulfonimidoyl)phenyl)ethyl)-4-((R)-3-(3-(trifluoromethyl)phenoxy)pyrrolidin-1-yl)tetrahydro-2H-pyran-4-carboxamide, hydrochloride] | < 0.1 µM |
| C[C@H](NC(=O)C1(c2cccc(OCC3CCCCCC3)c2)CCOCC1)c1ccc(C(=O)O)cc1 [Example 103, 4-[(1S)-1-[[4-[3-(Cycloheptylmethoxy)phenyl]tetrahydropyran-4-carbonyl]amino]ethyl]benzoic acid] | < 0.1 µM |

Further lines, results first:

| IC50 | Structure (SMILES) |
| --- | --- |
| < 0.1 µM | C[C@H](NC(=O)C1(c2cccc(OCC3CCCCC3)c2)CCCC1)c1ccc(C(=O)O)cc1 [Example 112, 4-[(1S)-1-[[1-[3-(Cyclohexylmethoxy)phenyl]cyclopentanecarbonyl]amino]ethyl]benzoic acid] |
| < 1 µM | CN(CCOc1ccccc1)C1(C(=O)NC2(c3ccc(C(=O)O)cc3)CC2)CCOC1 (stereo not drawn) [Example 76, 4-[1-[[3-[Methyl(2-phenoxyethyl)amino]tetrahydrofuran-3-carbonyl]amino]cyclopropyl]benzoic acid, hydrochloride] |
| < 0.1 µM | C[C@H](NC(=O)C1(N(C)CCOc2cccc(Cl)c2)CCOCC1)c1ccc(C(=O)O)cc1 [Example 9, 4-[(1S)-1-[[4-[2-(3-Chlorophenoxy)ethyl-methyl-amino]tetrahydropyran-4-carbonyl]amino]ethyl]benzoic acid, hydrochloride] |
| < 0.1 µM | C[C@H](NC(=O)C1(NCCOc2ccccc2)CCCC1)c1ccc(C(=O)O)cc1 [Example 61, 4-[(1S)-1-[[1-(2-Phenoxyethylamino)cyclopentanecarbonyl]amino]ethyl]benzoic acid, hydrochloride] |
| < 1 µM | C[C@H](NC(=O)C1(NCCCc2ccccc2)CCOCC1)c1ccc(C(=O)O)cc1 [Example 18, 4-[(1S)-1-[[4-(3-Phenylpropylamino)tetrahydropyran-4-carbonyl]amino]ethyl]benzoic acid, hydrochloride] |
| < 0.1 µM | C[C@H](NC(=O)C1(NCCOc2ccccc2)CCSCC1)c1ccc(C(=O)O)cc1 [Example 66, 4-[(1S)-1-[[4-(2-Phenoxyethylamino)tetrahydrothiopyran-4-carbonyl]amino]ethyl]benzoic acid] |
| < 0.1 µM | C[C@H](NC(=O)C1(N2CC[C@@H](Oc3cccc(F)c3)C2)CCOCC1)c1ccc(C(=O)O)cc1 [Example 142, 4-[(1S)-1-[[4-[(3R)-3-(3-Fluorophenoxy)pyrrolidin-1-yl]tetrahydropyran-4-carbonyl]amino]ethyl]benzoic acid, hydrochloride] |
| < 0.1 µM | COc1cccc(O[C@@H]2CCN(C3(C(=O)N[C@@H](C)c4ccc(C(=O)O)cc4)CCOCC3)C2)c1 [Example 148, 4-[(1S)-1-[[4-[(3R)-3-(3-Methoxyphenoxy)pyrrolidin-1-yl]tetrahydropyran-4-carbonyl]amino]ethyl]benzoic acid, hydrochloride] |
| < 0.1 µM | C[C@H](NC(=O)C1(NCCOc2cccc(Cl)c2)CCCC1)c1ccc(C(=O)O)cc1 [Example 63, 4-[(1S)-1-[[1-[2-(3-Chlorophenoxy)ethylamino]cyclopentanecarbonyl]amino]ethyl]benzoic acid, hydrochloride] |
| < 0.1 µM | C[C@H](NC(=O)C1(N(C)CCOc2ccccc2)CCCC1)c1ccc(C(=O)O)cc1 [Example 62, 4-[(1S)-1-[[1-[Methyl(2-phenoxyethyl)amino]cyclopentanecarbonyl]amino]ethyl]benzoic acid, hydrochloride] |
| < 0.1 µM | C[C@H](NC(=O)C1(N(C)CCOc2ccccc2)CCOCC1)c1ccc(C(=O)O)cc1 [Example 2, 4-[(1S)-1-[[4-[Methyl(2-phenoxyethyl)amino]tetrahydropyran-4-carbonyl]amino]ethyl]benzoic acid, hydrochloride] |
| < 1 µM | C[C@H](NC(=O)C1(NCCOc2ccc(Cl)cc2)CCOCC1)c1ccc(C(=O)O)cc1 [Example 11, 4-[(1S)-1-[[4-[2-(4-Chlorophenoxy)ethylamino]tetrahydropyran-4-carbonyl]amino]ethyl]benzoic acid, hydrochloride] |
| < 0.1 µM | Cc1cccc(OCCNC2(C(=O)N[C@@H](C)c3ccc(C(=O)O)cc3)CCCCC2)c1 [Example 58, 4-[(1S)-1-[[1-[2-(3-Methylphenoxy)ethylamino]cyclohexanecarbonyl]amino]ethyl]benzoic acid, hydrochloride] |
| < 1 µM | C[C@H](NC(=O)C1(c2cccc(OCc3ccccc3)c2)CCOCC1)c1ccc(C(=O)O)cc1 [Example 99, 4-[(1S)-1-[[4-(3-Benzyloxyphenyl)tetrahydropyran-4-carbonyl]amino]ethyl]benzoic acid] |
| < 1 µM | C[C@H](NC(=O)C1(NCCOc2ccccc2)CCC(F)(F)CC1)c1ccc(C(=O)O)cc1 [Example 65, 4-[(1S)-1-[[4,4-Difluoro-1-(2-phenoxyethylamino)cyclohexanecarbonyl]amino]ethyl]benzoic acid, hydrochloride] |
